Source: patent publication US20090042726A1, “Novel Herbicides” (SYNGENTA LIMITED, priority 2005, published 2009)

Test system: Monocotyledonous and dicotyledonous test plants
Assay: Herbicidal action, application pre-emergence (Example B1)
Assay type: in vivo
Design: key: 10=total damage to plant; 0=no damage to plant
Details: 1000 g/ha, evaluated after 9 or 13 days; for AGSTE herbicidal action (damage score 0-10): Agrostis-tenius; for AMARE herbicidal action (damage score 0-10): Amaranthus retroflexus; for DIGSA herbicidal action (damage score 0-10): Digitaria sanguinalis; for POATR herbicidal action (damage score 0-10): Poa trivialis; for SETIT herbicidal action (damage score 0-10): Setaria italica
Method: Monocotyledonous and dicotyledonous test plants were sown in sterilised standard soil in seed trays each having 96 cells. After one day (pre-emergence) under controlled conditions in a climatic chamber (cultivation at 23/17° C., day/night; 13 hours light; 50-60% humidity; after application at 24/19° C., day/night), the plants were treated with an aqueous spray solution of 1000 mg/l of the active ingredient used (including 10% DMSO as solvent). The plants were grown on in the climatic chamber until the test was evaluated (10=total damage to plant, 0=no damage to plant) after 9 or 13 days.

SMILES	AGSTE herbicidal action (damage score 0-10)	AMARE herbicidal action (damage score 0-10)	DIGSA herbicidal action (damage score 0-10)	POATR herbicidal action (damage score 0-10)	SETIT herbicidal action (damage score 0-10)
Cn1nc(C(F)(F)F)c(Cl)c1CS(=O)(=O)C1=NOC(C)(C)C1F (stereo not shown) [6.07]	10	7	9	10	–
Cn1nc(OC(F)F)cc1CSC1=NOC(C)(C)C1F (stereo not shown) [Compound No. 6.08]	9	3	8	9	–
Cc1nn(C)nc1CSC1=NOC(C)(C)C1F (stereo not shown) [Compound No. 7.01]	10	0	8	0	8
CCc1nn(C)nc1CSC1=NOC(C)(C)C1F (stereo not shown) [Compound No. 7.31]	9	0	7	0	–
Cn1nc(C(F)(F)F)c(C[S+]([O-])C2=NOC(C)(C)C2F)c1OC(F)F (mixture of isomers) [2.23]	10	10	10	10	10
COc1ncc(C[S+]([O-])C2=NOC(C)(C)C2F)c(C(F)(F)F)n1 (stereo not shown) [5.02]	10	10	10	10	–
Cc1nn(C(C)C)nc1CS(=O)(=O)C1=NOC(C)(C)C1F (stereo not shown) [7.39]	10	8	9	8	–
COCCOc1c(C[S+]([O-])C2=NOC(C)(C)C2F)c(C(F)(F)F)nn1C (mixture of isomers) [2.58]	10	10	10	10	–
Cn1nc(C(F)(F)F)c(CS(=O)(=O)C2=NOC(C)(C)C2Cl)c1OC(F)F (stereo not shown) [2.18]	10	8	5	9	8
Cn1nc(C(F)(F)F)c(C[S+]([O-])C2=NOC(C)(C)C2F)c1OC(F)F (single isomer, unassigned) [2.24]	10	10	10	10	10
Cn1nc(C(F)(F)F)c(C[S+]([O-])C2=NOC(C)(C)C2Cl)c1OCC(F)(F)F (stereo not shown) [Compound No. 2.14, 4-Chloro-5,5-dimethyl-3-[1-methyl-5-(2,2,2-trifluoro-ethoxy)-3-trifluoromethyl-1H-pyrazol-4-ylmethylsulfinyl]-4,5-dihydro-isoxazole]	10	9	9	10	9
Cn1nc(C(F)(F)F)c(C[S+]([O-])C2=NOC(C)(C)C2Br)c1OC(F)F (stereo not shown) [Compound No. 2.05, 4-bromo-3-(5-difluoromethoxy-1-methyl-3-trifluoromethyl-1H-pyrazol-4-ylmethylsulfinyl)-5,5-dimethyl-4,5-dihydro-isoxazole]	9	2	8	0	9
COc1cc(CS(=O)(=O)C2=NOC(C)(C)C2F)n(C)n1 (stereo not shown) [6.13]	10	10	9	10	–
Cn1nc(C(F)(F)F)cc1C[S+]([O-])C1=NOC(C)(C)C1F (mixture of isomers) [6.02]	10	10	9	10	–
CCn1ncc(CS(=O)(=O)C2=NOC(C)(C)C2F)n1 (stereo not shown) [7.36]	9	8	9	10	–
CCc1nn(C)nc1CS(=O)(=O)C1=NOC(C)(C)C1F (stereo not shown) [7.33]	10	10	10	10	–

SMILES	AGSTE herbicidal action (damage score 0-10)	AMARE herbicidal action (damage score 0-10)	DIGSA herbicidal action (damage score 0-10)	POATR herbicidal action (damage score 0-10)	SETIT herbicidal action (damage score 0-10)
Cn1nc(OC(F)F)c(CS(=O)(=O)C2=NOC(C)(C)C2F)c1C(F)(F)F (stereo not shown) [2.31]	10	10	10	10	10
Cn1nc(C(F)(F)F)c(C[S+]([O-])C2=NOC(C)(C)C2F)c1OCC(F)(F)F (single isomer, unassigned) [2.09]	10	9	9	10	10
COCCn1nc(C[S+]([O-])C2=NOC(C)(C)C2F)c(C(F)(F)F)n1 (mixture of isomers) [7.19]	6	10	9	10	–
CC1(C)ON=C(S(=O)(=O)Cc2nn(C3CCCC3)nc2C(F)(F)F)C1F (stereo not shown) [7.14]	10	8	9	8	–
COCCn1nc(CS(=O)(=O)C2=NOC(C)(C)C2F)c(C(F)(F)F)n1 (stereo not shown) [7.20]	10	10	10	10	–
Cn1cc(CS(=O)(=O)C2=NOC(C)(C)C2F)c(C(F)(F)F)n1 (stereo not shown) [2.34]	10	10	10	10	9
Cn1cc(C(F)(F)F)c(CSC2=NOC(C)(C)C2F)n1 (stereo not shown) [4.01, 3-(4-fluoro-5,5-dimethyl-4,5-dihydro-isoxazol-3-ylsulfanyl-methyl)-1-methyl-4-trifluoromethyl-1H-pyrazole]	0	8	9	0	9
Cn1nc(OCC(F)(F)F)c(C[S+]([O-])C2=NOC(C)(C)C2F)c1C(F)(F)F (single isomer, unassigned) [2.42]	0	8	8	8	8
Cc1nc(C(F)(F)F)ccc1CS(=O)(=O)C1=NOC(C)(C)C1F (stereo not shown) [3.03]	10	10	0	10	9
Cn1nnc(Br)c1CS(=O)(=O)C1=NOC(C)(C)C1F (stereo not shown) [11.03]	10	3	9	10	–
Cn1nc(OC(F)F)cc1CS(=O)(=O)C1=NOC(C)(C)C1F (stereo not shown) [6.10]	10	7	0	9	–
Cn1nnc(Br)c1C[S+]([O-])C1=NOC(C)(C)C1F (mixture of isomers) [11.02]	10	5	9	10	–
Cn1nc(C(F)(F)F)cc1CSC1=NOC(C)(C)C1F (stereo not shown) [Compound No. 6.01]	9	0	8	0	–
Cn1nc(OCC(F)(F)F)c(CS(=O)(=O)C2=NOC(C)(C)C2F)c1C(F)(F)F (stereo not shown) [2.44]	0	10	7	10	10
COCCn1nc(CSC2=NOC(C)(C)C2F)c(C(F)(F)F)n1 (stereo not shown) [Compound No. 7.18]	7	8	8	0	–
CC1(C)ON=C([S+]([O-])Cc2c(F)cccc2F)C1F (single isomer, unassigned) [1.15]	10	9	9	10	9
